Results published in ChEMBL document CHEMBL3880385, “2-Iminoisoindolinone derivatives as thrombin receptor antagonists” (2011).
Where a name gives a salt, the structure may show the parent alone.

Test: Antiproliferative activity against thrombin-induced […] smooth muscle cells isolated from Sprague-Dawley rat aorta after 2 days by MTT assay
Type: functional
Conditions: VSMC, 48 h

| SMILES | IC50 [nM] |
| --- | --- |
| CCOc1cc2c(c(F)c1OCC)C(=N)N(CC(=O)c1cc(N3CCC(O)CC3)c(OC)c(C(C)(C)C)c1)C2 | 23 |
| CCOc1cc2c(c(F)c1OCC)C(=N)N(CC(=O)c1cc(N3CCNCC3)c(OC)c(C(C)(C)C)c1)C2 | 52 |
| CCOc1cc2c(c(F)c1OCC)C(=N)N(CC(=O)c1cc(N3CCN(CC(=O)O)CC3)c(OC)c(C(C)(C)C)c1)C2 | 150 |
| CCOc1cc2c(c(F)c1OCC)C(=N)N(CC(=O)c1cc(N3CCN(CC#N)CC3)c(OC)c(C(C)(C)C)c1)C2 | 75 |
| CCOc1cc2c(c(F)c1OCC)C(=N)N(CC(=O)c1cc(N3CCOCC3)c(OC)c(C(C)(C)C)c1)C2 [ATOPAXAR HYDROBROMIDE] | 32 |
